Series [1] deals with angiogenesis induced by Angiotensin II in Sprague-Dawley rats. As to the kind of experiment: Suppression of Angiotensin II induced angiogenesis in implanted sponge (99mTc-DTPA clearance). Particulars: Control AII (100nmol) alone, no test drug. It is filed as in vivo.
The test system of series [2] is A7r5. As to the kind of experiment: Inhibition of intracellular ROS induced by H2O2 (H2DCFDA) in A7r5. It is filed as cell-based. The note with it: Rattus norvegicus. How it is done:
Measurement of intracellular ROS (Reactive Oxygen Species) was determined using H2DCFDA (2',7'-dichlorodihydrofluorescein diacetate, Molecular Probes, Eugene, OR, USA). H2DCFDA is a non-polar compound that readily diffused into cells, where it is hydrolyzed by intracellular esterase to polar derivative H2DCF (2',7'-dichlorodihydrofluorescein) which can not cross the cell membrane, and thereby trapped within the cell. H2DCF is low-fluorescent, but converted to high-fluorescent DCF (2',7'-dichlorofluorescein) by intracellular ROS. Therefore, the intracellular ROS formation can be determined from the amount of converted DCF. HUVEC (Human umbilical Vascular Endothelial Cells) or A7r5 (Rat thoracic aorta smooth muscle cells) were used. HUVEC were cultured in Kaighn's F12K medium supplemented with 10% heat-inactivated FBS, 0.1 mg/ml heparin sodium, 0.03-0.05 mg/ml ECGS (Endothelial cell growth supplement) and 1% antibiotics, and A7r5 were cultured in DMEM supplemented with 10% heat inactivated FBS and 1% antibiotics. To measure the intracellular ROS, HUVEC or A7r5 were preincubated for 30 min in the presence of test compounds (10^-7-10^-5 M). Thereafter, cells were stimulated with H2O2 (10^-6 and 10^-5 M for 20 min), and then incubated in the dark for 2 hr at 37 °C in 50 mM phosphate buffer (pH 7.4) containing 5 uM H2DCFDA. The quantity of DCF fluorescence (485 nm excitation, 530 nm emission) was measured using Fluorescence plate reader (FL600, Biotek Instruments).

Series [3] in a line: Acute oral toxicity test in rats. Particulars: rat, in vivo, single oral dose in 0.5% methyl cellulose, read-out: lethal dose (LD50) for oral administration. How it is done:
In this test six-week old SPF SD rats were used with two rats assigned to each group. The compounds of examples 1, 2, 3, 5, 7, 8, 9, 10, 13, 14, 15, 19, 22, 23, 24, 25, 26, 28, 29, 30, 31, 32, 33, 34, 35, 36, 37, 38, 39, 40, 41, 44, 46, 47, 48, 49, 51, 52, 57, 58, 60, 62, 64, 67, 68, 69, 71 and 72 were suspended in 0.5% methyl cellulose, respectively, and administered orally at a single dose of 1 g/kg using a ball-tipped needle. The dosing volume was 10 ml/kg. […] All survivors at the end of the observation period underwent laparotomy under ether anesthesia and the blood samples were taken from the abdominal aorta for hematological tests and biochemical analysis. After sacrificing the animals, autopsy was performed for macroscopic observation of the organs and tissues. Tissue samples of vital organs from macroscopic legion were removed and fixed in 10% neutral buffered formalin solution, then processed by standard procedures for histopathology and examined under light microscope. There were no significant changes in clinical symptoms, body weight and mortalities. Also in hematology, serum chemistry parameters and macroscopic observation, no drug-related changes were observed.

The subject of series [4] is rat aorta. In words: Vasodilation effects on isolated blood vessels of rats (methoxamine-constricted aortic rings). Type of series: cell-based. The note with it: isolated rat aorta constricted with methoxamine (3 uM); read-out: Vasodilation Activity (in Vitro, rat aorta) (IC50). The text has this: Male Sprague-Dawly rats (350-450 g, obtained from the Experimental Animal Team of the Korea Research Institute of Chemical Technology) were knocked unconscious by hitting the occipital region, sacrificed by cervical dislocation, and underwent thoracotomy. After being quickly removed, the thoracic aorta was deprived of the adipose tissue and cut into aortic rings of 3 mm width. The aorta was lightly rubbed with a modified Krebs Henseleit buffer (Physiological Salt Solution, PSS) soaked cotton club to remove the inner epithelial layer therefrom. While being suspended in an organ bath containing a physiological buffer, the vascular tissue was allowed to equilibrate under a resting tension of 2 g and then, stand for 1 hour at 37 °C for stabilization with a supply of a carbogen consisting of 95% O2-5% CO2.
Thereafter, the vascular tissue was constricted with 10^-5 M phenylephrine and washed several times with PSS and this procedure was repeated again to ensure the stable reacivity of vascular smooth muscle to repetitive constriction/dilatation.
In addition, 3x10^-6 M methoxamine was used to induce an intensive constriction in the vascular smooth muscle. When the vasoconstriction induced by the methoxamine reached and maintained a maximum, test compounds and controls were cumulatively added to the organ baths in concentrations of 1, 3, 10 and 30 uM so as to induce vasodilatation. As for the controls, they were Cromakalim and BMS-180448 (the compounds of the chemical formula 2), both known to be the first generation KATP activator with potent vasodilatation and cardioprotection effects.
Following the addition of the drugs, the change in the maximal constriction induced by methoxamine was calculated to plot a concentration-dilation response curve. Through a linear regression analysis, IC50, the drug concentration at which the vascular tissue is 50% dilated, was obtained for each drug.

Series [5] relates to ischemic heart models of rats. In words: Heart protective (anti-ischemic) activity in ischemic heart models of anesthetized rats. Type of series: in vivo. Particulars: 45 min occlusion, 90 min reperfusion. How it is done: Male rats (350-450 g, obtained from the Experimental Animal Team of the Korea Research Institute of Chemical Technology) were anesthetized by the intraperitoneal injection of pentobarbital at a dose of 75 mg/kg. After trachetomy, the rats were rendered to respire artificially at a rate of 60/min with a stroke volume of 10 ml/kg. Cannulars were inserted into the fermoral vein and the fermoral artery and used for drug administration and blood pressure measurement, respectively.
In the ischemic myocardium damage models, the body temperature has an important influence on the results. To avoid the change in the body temperature, a body temperature measuring probe was inserted into the rectum of each rat and the body temperature was constantly kept at 37 °C with the aid of a homeothermic blanket control unit.
Afterwards, during testing, a continuous measurement was made of the mean arterial blood pressures and heart rates from the rats. For the measurement of the blood pressure, a pressure transducer, such as that manufactured by Grass Ins., MA, U.S.A., identified as Model Statham P23XL, was used. The heart rate was measured by a tachometer, such as that manufactured by Gould Inc., OH, U.S.A., identified as Biotachometer. In addition, all of the changes occurring were continuously recorded through the Gould 2000 chart recorder, manufactured by Gould Inc.
The left coronary artery was occluded according to the Selye H. method as follows. The rats underwent a left thoracotomy operation for partial opening of the chest and the right-side chest was pressurized by the middle finger of the left hand to push the heart out. Immediately after the left anterior descending coronary artery hereinafter referred to as (LAD) was carefully stitched using a suture needle with 5-0 silk ligature, the heart was then repositioned in the thoracic cavity while both ends of the ligature were situated outside. The opposite ligature ends were passed through a PE tube (PE100, 2.5 cm) and allowed to stand loose for 20 min for stabilization. Via the cannula inserted into the femoral vein, vehicles or drugs were administered into the rats which were rendered to stand for 30 min in order to sufficiently elicit the efficacies of the drugs. BMS-180448 was used as a control drug and the i.v.administration dose was 0.3 mg/kg for all test drugs of interest and the control drug.
Next, the PE tube which had the doubled strands of the ligature passed therethrough was pushed toward the heart and then, set upright by tightly pulling end regions of the ligature with a hemostatic pincette while pressing the coronary artery. The PE tube was allowed to stand for 45 min for the occlusion of the coronary artery, followed by the removal of the hemostatic pincette and then, by the reperfusion for 90 min.
After the reocclusion of the coronary artery in accordance with the above procedure, the rats were administered with 2 ml of a 1% Evans blue through an intravenous route. Subsequently, an excess of pentobarbital was intravenously injected to kill the rats, after which the heart was removed and then, deprived of the right ventricle and both atria. The left ventricle was cut horizontally to the heart apex into 5 or 6 slices which were weighed. From the surface of each slice, images were input with the aid of a Hi-scope into a computer installed with an image analyzing program (Image Pro Plus). From the images input into the computer, the area of the normal blood stream tissue region which appeared blue in a computer monitor and the area which appeared colorless were measured. The percentage of the colorless area to the total area of each slice was calculated and multiplied by the weight of each slice to determine the area at risk (AAR) of each slice. […]

Consider 4 compounds from patent EP1228058B1, “BENZOPYRANYL GUANIDINE DERIVATIVES, PROCESS FOR PREPARATION THEREOF, AND PHARMACEUTICAL COMPOSITIONS CONTAINING THEM” (Dongbu Hannong Chemical Co., Ltd., priority 1999, dated 2001).

Where only a bound is given, the exact number is not on record here.

Turning to “Angiotensin II [AII, reference compound]”, in series [1], the “Clearance of ^99mTC (%)” value is listed as 44.71%.
Turning to `CC(C)(Sc1cc(C(C)(C)C)c(O)c(C(C)(C)C)c1)Sc1cc(C(C)(C)C)c(O)c(C(C)(C)C)c1` [Probucol, reference compound], the inhibition – broadly, the drop in the measured response relative to a control, in per cent – at 10 µM in series [2] (A7r5, Conc. 10^-5 M, read-out: Inhibition (%) H2O2 (10^-6M)) was 185%. In series [2] (A7r5, Conc. 10^-6 M), the inhibition at 1 µM was 184%. For the same compound, the inhibition at 0.1 µM in series [2] (A7r5, Conc. 10^-7 M, read-out: Inhibition (%) H2O2 (10^-6M)) was determined as 72%.
Consider `COC(OC)[C@@]1(C)Oc2ccc(NC(C)=O)cc2[C@@H](NC(=NC#N)NCc2ccccc2)[C@@H]1O` [Example 41], for which the LD50 in series [3] is above 1000 mg/kg. Besides, the IC50 – broadly, the concentration that inhibits the measured activity by half – in series [4] was above 30 µM. The “Anti-ischemic Activity (in vivo, rats) (0.3 mg/kg i.v.) IZ/AAR (%)” value in series [5] was 30.25%.
Turning to `COC(OC)[C@@]1(C)Oc2ccc([N+](=O)[O-])cc2[C@@H](NC(=NC#N)Nc2cccc(C(F)(F)F)c2)[C@@H]1O` [Example 15, (2S, 3S, 4R)-N''-cyano-N-(6-nitro-3,4-dihydro-3-hydroxy-2-methyl-2-dimethoxymethyl-2H-benzopyran-4-yl)-N'-(3-trifluoromethylphenyl)guanidine], in series [3], the LD50 is above 1000 mg/kg. Further, the IC50 in series [4] was determined as 14.1 µM.
